Tests used:
Experiment in all cases: selective drug sensitivity score (sDSS, relative to normal bone marrow) (sDSS (score)); higher = more potent and effective on the cell line relative to normal bone marrow cells
Conditions in all cases: 72 h
[1] = tested on: TANOUE
[2] = tested on: MHH-CALL-2
[3] = tested on: HPB-ALL
[4] = tested on: MHH-CALL-4
[5] = tested on: MN-60
[6] = tested on: P30-OHKUBO
[7] = tested on: MOLT-4
[8] = tested on: RCH-ACV
[9] = tested on: PF-382
[10] = tested on: COG-LL-319h
[11] = tested on: COG-LL-332h
[12] = tested on: COG-LL-355h
[13] = tested on: REH
[14] = tested on: CCRF-CEM
[15] = tested on: MOLT-16
[16] = tested on: KARPAS-45
[17] = tested on: ALL-SIL
[18] = tested on: NALM-6
[19] = tested on: MOLT-14
[20] = tested on: COG-LL-317
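Further: ALL cell lines in 384-well plates, five doses spanning 10,000-fold, each plate scaled between vehicle and 100 µmol/L benzalkonium chloride controls, sDSS an adapted area-under-curve metric.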

With `Clc1ccccc1C(c1ccccc1)(c1ccccc1)n1cccn1` [TRAM-34] (top concentration 1000 nM) the “selective drug sensitivity score” value [1] was -0.08, the “selective drug sensitivity score” value [2] was 1.12 and the “selective drug sensitivity score” value [3] was -0.08. For the same molecule, the “selective drug sensitivity score” value [4] was -0.08, the “selective drug sensitivity score” value [5] was -0.08 and the “selective drug sensitivity score” value [6] was 1.12. The “selective drug sensitivity score” value [7] was -0.08, the “selective drug sensitivity score” value [8] was -0.08 and the “selective drug sensitivity score” value [9] was -0.08. For the same molecule, the “selective drug sensitivity score” value [10] was -0.08, the “selective drug sensitivity score” value [11] was -0.08 and the “selective drug sensitivity score” value [12] was -0.08. For the same molecule, the “selective drug sensitivity score” value [13] was 0.22, the “selective drug sensitivity score” value [14] was -0.08 and the “selective drug sensitivity score” value [15] was -0.08. For the same molecule, the “selective drug sensitivity score” value [16] was -0.08, the “selective drug sensitivity score” value [17] was -0.08 and the “selective drug sensitivity score” value [18] was -0.08. For the same molecule, the “selective drug sensitivity score” value [19] was -0.08 and the “selective drug sensitivity score” value [20] was -0.08.
For `CNC(=O)[C@@H](NC(=O)[C@H](CC(C)C)[C@H](O)C(=O)NO)C(C)(C)C` [Marimastat] (top concentration 10000 nM), the “selective drug sensitivity score” value [1] was -1.28, the “selective drug sensitivity score” value [2] was 9.42 and the “selective drug sensitivity score” value [3] was -1.08. For the same molecule, the “selective drug sensitivity score” value [4] was 0.92, the “selective drug sensitivity score” value [5] was 1.02 and the “selective drug sensitivity score” value [6] was -0.18. The “selective drug sensitivity score” value [7] was 0.62, the “selective drug sensitivity score” value [8] was 2.02 and the “selective drug sensitivity score” value [9] was -0.68. The “selective drug sensitivity score” value [10] was -1.28, the “selective drug sensitivity score” value [11] was -0.18 and the “selective drug sensitivity score” value [12] was -1.28. For the same molecule, the “selective drug sensitivity score” value [13] was -1.28, the “selective drug sensitivity score” value [14] was -0.48 and the “selective drug sensitivity score” value [15] was 2.82. For the same molecule, the “selective drug sensitivity score” value [16] was 3.32, the “selective drug sensitivity score” value [17] was -1.28 and the “selective drug sensitivity score” value [18] was -1.28. The “selective drug sensitivity score” value [19] was 2.92 and the “selective drug sensitivity score” value [20] was -1.28.
For `O=S(=O)(c1cccc2c(O)nccc12)N1CCCNCC1` [Hydroxyfasudil] (top concentration 19000 nM), the “selective drug sensitivity score” value [1] was -0.92, the “selective drug sensitivity score” value [2] was 5.88 and the “selective drug sensitivity score” value [3] was -0.92. The “selective drug sensitivity score” value [4] was -0.12, the “selective drug sensitivity score” value [5] was -0.92 and the “selective drug sensitivity score” value [6] was -0.52. The “selective drug sensitivity score” value [7] was -0.72, the “selective drug sensitivity score” value [8] was -0.72 and the “selective drug sensitivity score” value [9] was -0.92. The “selective drug sensitivity score” value [10] was -0.72, the “selective drug sensitivity score” value [11] was -0.82 and the “selective drug sensitivity score” value [12] was -0.92. For the same molecule, the “selective drug sensitivity score” value [13] was -0.62, the “selective drug sensitivity score” value [14] was -0.32 and the “selective drug sensitivity score” value [15] was -0.02. For the same molecule, the “selective drug sensitivity score” value [16] was 0.48, the “selective drug sensitivity score” value [17] was -0.92 and the “selective drug sensitivity score” value [18] was -0.92. The “selective drug sensitivity score” value [19] was -0.92 and the “selective drug sensitivity score” value [20] was -0.22.
`Cc1ccc(-c2cc(C(F)(F)F)nn2-c2ccc(S(N)(=O)=O)cc2)cc1` [Celecoxib] (top concentration 10000 nM) was tested, and the “selective drug sensitivity score” value [1] was -0.06, the “selective drug sensitivity score” value [2] was 0.34 and the “selective drug sensitivity score” value [3] was -0.06. For the same molecule, the “selective drug sensitivity score” value [4] was -0.06, the “selective drug sensitivity score” value [5] was -0.06 and the “selective drug sensitivity score” value [6] was -0.06. The “selective drug sensitivity score” value [7] was 0.14, the “selective drug sensitivity score” value [8] was 0.64 and the “selective drug sensitivity score” value [9] was 0.24. For the same molecule, the “selective drug sensitivity score” value [10] was 0.04, the “selective drug sensitivity score” value [11] was 0.34 and the “selective drug sensitivity score” value [12] was -0.06. The “selective drug sensitivity score” value [13] was -0.06, the “selective drug sensitivity score” value [14] was -0.06 and the “selective drug sensitivity score” value [15] was 0.34. For the same molecule, the “selective drug sensitivity score” value [16] was 0.34, the “selective drug sensitivity score” value [17] was 0.54 and the “selective drug sensitivity score” value [18] was -0.06. The “selective drug sensitivity score” value [19] was -0.06 and the “selective drug sensitivity score” value [20] was -0.06.
With `CC[C@@H]1C(=O)OC[C@@H]1Cc1cncn1C` [Pilocarpine] (top concentration 40000 nM) the “selective drug sensitivity score” value [1] was -0.36, the “selective drug sensitivity score” value [2] was 4.44 and the “selective drug sensitivity score” value [3] was 7.34. For the same molecule, the “selective drug sensitivity score” value [4] was -1.56, the “selective drug sensitivity score” value [5] was -1.56 and the “selective drug sensitivity score” value [6] was -1.56. For the same molecule, the “selective drug sensitivity score” value [7] was -1.26, the “selective drug sensitivity score” value [8] was -1.56 and the “selective drug sensitivity score” value [9] was -1.56. The “selective drug sensitivity score” value [10] was -1.56, the “selective drug sensitivity score” value [11] was -1.56 and the “selective drug sensitivity score” value [12] was -1.56. The “selective drug sensitivity score” value [13] was -1.56, the “selective drug sensitivity score” value [14] was -1.56 and the “selective drug sensitivity score” value [15] was 1.94. The “selective drug sensitivity score” value [16] was -1.56, the “selective drug sensitivity score” value [17] was -0.76 and the “selective drug sensitivity score” value [18] was -1.56. For the same molecule, the “selective drug sensitivity score” value [19] was -0.36 and the “selective drug sensitivity score” value [20] was -1.56.
In the case of `COc1cc([C@@H]2c3cc4c(cc3[C@@H](O[C@@H]3O[C@@H]5CO[C@@H](C)O[C@H]5[C@H](O)[C@H]3O)[C@H]3COC(=O)[C@H]23)OCO4)cc(OC)c1O` [Etoposide] (top concentration 10000 nM), the “selective drug sensitivity score” value [1] was -6.26, the “selective drug sensitivity score” value [2] was 13.2 and the “selective drug sensitivity score” value [3] was 7.74. The “selective drug sensitivity score” value [4] was 10.2, the “selective drug sensitivity score” value [5] was -0.86 and the “selective drug sensitivity score” value [6] was 16.3. The “selective drug sensitivity score” value [7] was 23.5, the “selective drug sensitivity score” value [8] was 25.1 and the “selective drug sensitivity score” value [9] was 13.5. For the same molecule, the “selective drug sensitivity score” value [10] was 23.2, the “selective drug sensitivity score” value [11] was 22.7 and the “selective drug sensitivity score” value [12] was 6.74. The “selective drug sensitivity score” value [13] was 20.3, the “selective drug sensitivity score” value [14] was 20.2 and the “selective drug sensitivity score” value [15] was 28.9. The “selective drug sensitivity score” value [16] was 7.24, the “selective drug sensitivity score” value [17] was 14.3 and the “selective drug sensitivity score” value [18] was 14.1. The “selective drug sensitivity score” value [19] was 21.5 and the “selective drug sensitivity score” value [20] was 29.8.
For `CC(C)N(CCCNC(=O)Nc1ccc(C(C)(C)C)cc1)C[C@H]1O[C@@H](n2cc(Br)c3c(N)ncnc32)[C@H](O)[C@@H]1O` [SGC0946] (top concentration 10000 nM), the “selective drug sensitivity score” value [1] was -1.12, the “selective drug sensitivity score” value [2] was 2.18 and the “selective drug sensitivity score” value [3] was 1.18. The “selective drug sensitivity score” value [4] was -1.12, the “selective drug sensitivity score” value [5] was -0.72 and the “selective drug sensitivity score” value [6] was 2.58. For the same molecule, the “selective drug sensitivity score” value [7] was 0.08, the “selective drug sensitivity score” value [8] was -0.82 and the “selective drug sensitivity score” value [9] was 0.28. The “selective drug sensitivity score” value [10] was -1.12, the “selective drug sensitivity score” value [11] was 0.18 and the “selective drug sensitivity score” value [12] was 1.88. The “selective drug sensitivity score” value [13] was 5.18, the “selective drug sensitivity score” value [14] was 0.88 and the “selective drug sensitivity score” value [15] was 0.78. The “selective drug sensitivity score” value [16] was 3.98, the “selective drug sensitivity score” value [17] was -0.92 and the “selective drug sensitivity score” value [18] was -0.82. For the same molecule, the “selective drug sensitivity score” value [19] was -0.02 and the “selective drug sensitivity score” value [20] was -1.12.
With `CCCCNc1ncc(C(=O)NCc2ccc(-n3ccnc3)cc2)c(NC2CCC(O)CC2)n1` (stereo not given) [UNC2881] (top concentration 2500 nM) the “selective drug sensitivity score” value [1] was 0, the “selective drug sensitivity score” value [2] was 0 and the “selective drug sensitivity score” value [3] was 0. The “selective drug sensitivity score” value [4] was 0.5, the “selective drug sensitivity score” value [5] was 0 and the “selective drug sensitivity score” value [6] was 0. For the same molecule, the “selective drug sensitivity score” value [7] was 0.4, the “selective drug sensitivity score” value [8] was 0.4 and the “selective drug sensitivity score” value [9] was 0. For the same molecule, the “selective drug sensitivity score” value [10] was 0, the “selective drug sensitivity score” value [11] was 0.1 and the “selective drug sensitivity score” value [12] was 0. The “selective drug sensitivity score” value [13] was 0.2, the “selective drug sensitivity score” value [14] was 0 and the “selective drug sensitivity score” value [15] was 0.2. The “selective drug sensitivity score” value [16] was 0.5, the “selective drug sensitivity score” value [17] was 2.8 and the “selective drug sensitivity score” value [18] was 0. For the same molecule, the “selective drug sensitivity score” value [19] was 0 and the “selective drug sensitivity score” value [20] was 0.6.
For `CC(=O)O[C@@]12CO[C@@H]1C[C@H](O)[C@@]1(C)C(=O)[C@H](O)C3=C(C)[C@@H](OC(=O)[C@H](O)[C@@H](NC(=O)OC(C)(C)C)c4ccccc4)C[C@@](O)([C@@H](OC(=O)c4ccccc4)[C@H]21)C3(C)C` [Docetaxel] (top concentration 1000 nM), the “selective drug sensitivity score” value [1] was -11.8, the “selective drug sensitivity score” value [2] was 18.6 and the “selective drug sensitivity score” value [3] was 12.5. For the same molecule, the “selective drug sensitivity score” value [4] was 8.2, the “selective drug sensitivity score” value [5] was -1 and the “selective drug sensitivity score” value [6] was 20.4. For the same molecule, the “selective drug sensitivity score” value [7] was 14.8, the “selective drug sensitivity score” value [8] was 22.6 and the “selective drug sensitivity score” value [9] was 10.5. For the same molecule, the “selective drug sensitivity score” value [10] was 21.2, the “selective drug sensitivity score” value [11] was 22.2 and the “selective drug sensitivity score” value [12] was 5.1. The “selective drug sensitivity score” value [13] was 21.1, the “selective drug sensitivity score” value [14] was 19.8 and the “selective drug sensitivity score” value [15] was 23.5. For the same molecule, the “selective drug sensitivity score” value [16] was 17.1, the “selective drug sensitivity score” value [17] was 20.6 and the “selective drug sensitivity score” value [18] was 14.1. The “selective drug sensitivity score” value [19] was 19.5 and the “selective drug sensitivity score” value [20] was 20.6.
